How the values were obtained:
[1] = system: common cutworm (Spodoptera litura); experiment: Insecticidal testing against common cutworm (cabbage leaf dip, second-stage larvae); type: in vivo; details: comparative test, procedure and conditions of Experimental Example 1
Procedure: (§1) Insecticidal Testing Against Common Cutworm (Spodoptera litura) Cabbage leaves were immersed in a liquid comprising the testing compound to a predetermined concentration for 30 seconds and air-dried. They were placed in a 7-cm polyethylene cup, and the second-stage larvae of common cutworm were left therein. The cup was placed in a constant-temperature room at 25° C., and the survival rate was investigated after 3 days. The test was carried out with two groups of 5 larvae per group. As a result, Compound No. (to be described later)

[2] = system: diamondback moth (Plutella xylostella); experiment: Insecticidal testing against diamondback moth (cabbage leaf dip, second-stage larvae); type: in vivo; details: comparative test, procedure and conditions of Experimental Example 2
Procedure: as §1, with “Diamondback Moth (Plutella xylostella)” for “Common Cutworm (Spodoptera litura)”, “diamondback moth” for “common cutworm”

Cc1cc(C(F)(C(F)(F)F)C(F)(F)F)ccc1NC(=O)c1cccc(NC(=O)c2ccccc2I)c1 [Compound A, N-(4-heptafluoroisopropyl-2-methyl)phenyl 3-(2-iodobenzoylamino)benzamide]
insecticidal activity [1]: not observed | insecticidal activity [2]: not observed

Cc1cc(C(F)(F)F)cc(C)c1NC(=O)c1cccc(NC(=O)c2ccccc2)c1 [Compound B, N-(2,6-dimethyl-4-trifluoromethyl)phenyl 3-(benzoylamino)benzamide]
insecticidal activity [1]: not observed | insecticidal activity [2]: not observed

Reference: US10435385B2, “Amide derivatives, process for preparation thereof and use thereof as insecticide” (MITSUI CHEMICALS, INC., priority 2004, dated 2019)
